Laboratory results: patent EP2769738B1, “Conjugated TLR7 and/or TLR8 and TLR2 polycationic agonists” (Invivogen, priority 2013, dated 2014)

How the values were obtained:
human TLR7 = target: T1, human TLR7 (Homo sapiens, UniProt Q9NYK1); assay: HEK-Blue hTLR7 NF-κB/AP-1-inducible SEAP reporter cell assay; type: cell-based; details: Figure 1; 10 µg/mL to 10 pg/ml, 24 hours, SEAP read as OD at 655 nm
T1 construct: host or cells: HEK293 (ATCC, CRL-1573), HEK-Blue hTLR7
T1 sequence (Q9NYK1 27-1049): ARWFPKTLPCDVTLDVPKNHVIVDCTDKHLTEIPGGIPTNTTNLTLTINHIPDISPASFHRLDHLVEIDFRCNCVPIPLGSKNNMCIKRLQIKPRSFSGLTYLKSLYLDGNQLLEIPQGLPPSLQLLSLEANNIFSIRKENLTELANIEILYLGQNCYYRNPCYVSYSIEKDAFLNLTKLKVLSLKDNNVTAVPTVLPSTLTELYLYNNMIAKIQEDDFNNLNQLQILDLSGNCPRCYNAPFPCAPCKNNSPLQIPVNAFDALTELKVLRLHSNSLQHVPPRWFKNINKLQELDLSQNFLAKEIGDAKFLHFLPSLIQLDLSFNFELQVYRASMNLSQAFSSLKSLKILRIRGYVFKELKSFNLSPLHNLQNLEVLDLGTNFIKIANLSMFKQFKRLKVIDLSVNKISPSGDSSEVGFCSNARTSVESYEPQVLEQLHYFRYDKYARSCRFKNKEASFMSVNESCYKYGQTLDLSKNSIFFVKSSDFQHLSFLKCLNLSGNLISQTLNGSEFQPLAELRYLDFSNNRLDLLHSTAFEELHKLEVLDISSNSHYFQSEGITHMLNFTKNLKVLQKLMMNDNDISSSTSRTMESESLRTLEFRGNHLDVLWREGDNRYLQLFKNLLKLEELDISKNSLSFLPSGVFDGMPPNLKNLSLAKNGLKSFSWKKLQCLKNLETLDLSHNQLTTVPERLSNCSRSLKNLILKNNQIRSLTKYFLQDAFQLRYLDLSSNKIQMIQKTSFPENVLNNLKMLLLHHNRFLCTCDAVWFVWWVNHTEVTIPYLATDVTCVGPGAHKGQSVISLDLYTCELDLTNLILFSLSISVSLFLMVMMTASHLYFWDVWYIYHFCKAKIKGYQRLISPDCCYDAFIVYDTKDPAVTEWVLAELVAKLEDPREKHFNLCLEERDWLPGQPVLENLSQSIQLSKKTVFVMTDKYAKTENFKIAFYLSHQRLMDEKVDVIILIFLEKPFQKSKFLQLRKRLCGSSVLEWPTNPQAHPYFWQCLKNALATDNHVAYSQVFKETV
Description: (§1) Assays for detecting TLR7, TLR8 or TLR2 activity are known in the art and include for example cell-based assays using respectively TLR7, TLR8 or TLR2 reporter cell lines (InvivoGen). The reporter cell lines are engineered HEK293 cells, a human embryonic kidney cell line (ATCC, CRL-1573) that stably express either murine TLR7 (HEK-Blue™ mTLR7) or human TLR7 (HEK-Blue™ hTLR7), human TLR8 (HEK-Blue™ hTLR8) or human TLR2 (HEK- Blue™ hTLR2) with an NF-κB-inducible secreted embryonic alkaline phosphatase (SEAP) as the reporter gene.
(§2) Cell-based assays were carried out using TLR7 and TLR2 reporter cell lines (InvivoGen). The reporter cell lines are engineered HEK293 cells, a human embryonic kidney cell line (ATCC, CRL-1573) that stably express either murine TLR7 (HEK-Blue™ mTLR7) or human TLR7 (HEK-Blue™ hTLR7) or human TLR2 (HEK- Blue™ hTLR2) with an NF-κB-inducible secreted embryonic alkaline phosphatase (SEAP) as the reporter gene. The SEAP reporter gene is under the control of the NF-κB and AP-1-inducible promoter, which, upon treatment with a corresponding TLR ligand and activation of NF-κB and AP-1, induces the production of SEAP. Detection of SEAP is measured following culturing cells in HEK-Blue™ Detection media (InvivoGen). HEK-Blue™ Detection contains a SEAP substrate that when hydrolysed by SEAP produces a colorimetric change allowing for detection of SEAP as the protein is secreted. […] These assays were carried out using RAW-Blue™ Cells (InvivoGen), derived from RAW 264.7 mouse leukemic monocyte macrophage cell line (ATCC, CRL 2278) stably overexpressing a NF-κB /AP-1 inducible SEAP reporter constructs.
(§3) To perform the assay, cells were seeded on 96 well microliter plates at 50,000 or 100,000 cells per well for HEK-Blue™ Cells and RAW-Blue™ Cells respectively, and cultured at 37 °C in the presence of the conjugated compounds The TLR7-TLR2 polyamine molecules were prepared as follows: First, stock solutions of the conjugated compounds of the invention were prepared in ethanol or water to a concentration of 10 mg/ml.
(§4) The working dilutions of the conjugated TLR7-TLR2 polyamine agonists made up in water or PBS were directly added to the reporter cell lines at a final concentration ranging from 10 µg/mL to 10 pg/ml and incubated at 37 °C for 24 hours. After 24 hours of incubation, the effect on reporter gene activity was determined by reading the OD at 655 nm using iMark™ Microplate Reader (BIO-RAD).

human TLR2 = target: T2, human TLR2 (Homo sapiens, UniProt O60603); assay: HEK-Blue hTLR2 NF-κB/AP-1-inducible SEAP reporter cell assay; type: cell-based; details: Figure 3; 10 µg/mL to 10 pg/ml, 24 hours, SEAP read as OD at 655 nm
T2 construct: host or cells: HEK293 (ATCC, CRL-1573), HEK-Blue hTLR2
Description: as §1, §2, §3, §4

[1] = test system: endogenous TLR2 and TLR7 in RAW-Blue™ Cells; assay: RAW-Blue Cells NF-κB/AP-1 SEAP reporter assay (endogenous receptors); type: cell-based, mouse; details: Figure 4; 10 µg/mL to 10 pg/ml, 24 hours, SEAP read as OD at 655 nm
Method: as §2, §3, §4

B16-F1 cells = assay: Cell transfection with SEAP plasmid, B16-F1; type: cell-based, mouse; details: Figure 5B; in complex with pVitro14 LGFP SEAP plasmid, 48 hours, SEAP reporter gene expression
Method: The TLR7-TLR2 molecules were tested for their ability as polyamine molecules to transport plasmid DNA (pDNA) into cells. The pVitro14 LGFP SEAP plasmid (InvivoGen) was complexed to TLR7-TLR2 polyamine molecules and to the control cationic lipid transfection agent, LyoVec™ (InvivoGen). The human HEK293 (ATCC, CRL-1573) and mouse B16-F1 melanoma (ATCC, CRL-6323) cell lines were seeded at a density of 50 000 cells/well and 20 000 cells/well respectively, in the absence or presence of different volumes of the plasmid encoding for the SEAP protein in complex with TLR7-TLR2 polyamine molecules for 48 hours at 37°C and 10% CO2. Transfection efficiency was assessed by measuring SEAP reporter gene expression: 20 µl of supernatant was sampled and mixed with 180 µl of QUANTI-Blue™ Detection (InvivoGen). In the presence of alkaline phosphatase SEAP, the color of QUANTI-Blue™ changes from pink to purple/blue. The intensity of the blue hue reflects the activity of SEAP. The levels of SEAP secretion were determined quantitatively by reading the OD at 620-655 nm using a spectrophotometer, iMark™ Microplate Reader (BIO-RAD).

T2 sequence (O60603 21-784): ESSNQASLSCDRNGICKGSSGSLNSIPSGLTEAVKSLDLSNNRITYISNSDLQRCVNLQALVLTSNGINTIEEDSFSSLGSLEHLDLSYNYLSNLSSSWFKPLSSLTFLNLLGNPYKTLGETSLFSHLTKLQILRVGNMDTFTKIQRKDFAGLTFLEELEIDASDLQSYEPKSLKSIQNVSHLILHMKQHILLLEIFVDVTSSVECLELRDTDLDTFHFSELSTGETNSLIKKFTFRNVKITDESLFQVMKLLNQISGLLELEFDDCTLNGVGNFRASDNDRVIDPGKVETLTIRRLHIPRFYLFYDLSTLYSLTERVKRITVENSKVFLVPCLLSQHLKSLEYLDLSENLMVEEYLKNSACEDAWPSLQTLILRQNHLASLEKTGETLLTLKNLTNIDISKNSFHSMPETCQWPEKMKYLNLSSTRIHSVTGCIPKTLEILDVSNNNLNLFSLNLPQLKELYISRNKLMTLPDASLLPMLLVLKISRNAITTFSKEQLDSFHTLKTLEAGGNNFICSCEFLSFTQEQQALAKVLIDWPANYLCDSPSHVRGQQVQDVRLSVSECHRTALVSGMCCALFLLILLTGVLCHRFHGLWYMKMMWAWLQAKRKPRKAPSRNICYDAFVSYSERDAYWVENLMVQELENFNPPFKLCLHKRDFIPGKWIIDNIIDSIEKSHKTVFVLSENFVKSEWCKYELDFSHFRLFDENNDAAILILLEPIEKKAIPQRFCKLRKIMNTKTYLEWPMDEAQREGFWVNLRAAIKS

ability to activate hTLR7 (human TLR7) | ability to activate hTLR2 (human TLR2) | Structure (SMILES) | ability to activate endogenous TLR2 and TLR7 in RAW-Blue™ Cells [1] | ability to transfect B16-F1 cells (B16-F1 cells)
activate hTLR7 | activate hTLR2 | CCCCCCCCCCCCCCCC(=O)OCC(CSC[C@H](N)C(=O)NCCCC[C@H](NC(=O)CNC(=O)c1ccc(Cn2c(O)nc3c(N)nc(NCCCC)nc32)cc1)C(=O)NCCCNCCCCNCCCN)OC(=O)CCCCCCCCCCCCCCC (stereo partly drawn) [CL487, (6R,13S)-6,27-diamino-13-(2-(4-((6-amino-2-(butylamino)-8-hydroxy-9H-purin-9-yl)methyl)benzamido)acetamido)-7,14-dioxo-4-thia-8,15,19,24-tetraazaheptacosane-1,2-diyl dipalmitate] | activate endogenous TLR2 and TLR7 | 
activate hTLR7 | activate hTLR2 | CCCCCCCCCCCCCCCC(=O)OCC(CSC[C@H](N)C(=O)N[C@@H](CCC(=O)NCCCNCCCCNCCCN)C(=O)Nc1ccc(Cn2c(O)nc3c(N)nc(NCCCC)nc32)cc1)OC(=O)CCCCCCCCCCCCCCC (stereo partly drawn) [CL527, (6R,9S)-6,25-diamino-9-(4-((6-amino-2-(butylamino)-8-hydroxy-9H-purin-9-yl)methyl)phenylcarbamoyl)-7,12-dioxo-4-thia-8,13,17,22-tetraazapentacosane-1,2-diyl dipalmitate] | activate endogenous TLR2 and TLR7 | transfect B16-F1 cells
activate hTLR7 | activate hTLR2 | CCCCCCCCCCCCCCCC(=O)OCC(CSC[C@H](N)C(=O)NCCCC[C@H](NC(=O)c1ccc(Cn2c(O)nc3c(N)nc(NCCCC)nc32)cc1)C(=O)NCCCNCCCCNCCCN)OC(=O)CCCCCCCCCCCCCCC (stereo partly drawn) [CL486, (6R,13S)-6,27-diamino-13-(4-((6-amino-2-(butylamino)-8-hydroxy-9H-purin-9-yl)methyl)benzamido)-7,14-dioxo-4-thia-8,15,19,24-tetraazaheptacosane-1,2-diyl dipalmitate] | activate endogenous TLR2 and TLR7 | 
activate hTLR7 | activate hTLR2 | CCCCCCCCCCCCCCCC(=O)OCC(CSC[C@H](N)C(=O)N[C@@H](CCCCNC(=O)CNC(=O)c1ccc(Cn2c(O)nc3c(N)nc(NCCCC)nc32)cc1)C(=O)NCCCNCCCCNCCCN)OC(=O)CCCCCCCCCCCCCCC (stereo partly drawn) [CL475, (6R,9S)-6,23-diamino-9-(4-(2-(4-((6-amino-2-(butylamino)-8-hydroxy-9H-purin-9-yl)methyl)benzamido)acetamido)butyl)-7,10-dioxo-4-thia-8,11,15,20-tetraazatrico sane-1,2-diyl dipalmitate] | activate endogenous TLR2 and TLR7 | 
activate hTLR7 | activate hTLR2 | CCCCCCCCCCCCCCCC(=O)OCC(CSC[C@H](N)C(=O)N[C@@H](COC(=O)c1ccc(Cn2c(O)nc3c(N)nc(NCCCC)nc32)cc1)C(=O)NCCCNCCCCNCCCN)OC(=O)CCCCCCCCCCCCCCC (stereo partly drawn) [CL514, (6R,9S)-6,23-diamino-9-((4-((6-amino-2-(butylamino)-8-hydroxy-9H-purin-9-yl)methyl)benzoyloxy)methyl)-7,10-dioxo-4-thia-8,11,15,20-tetraazatricosane-1,2-diyl dipalmitate] | activate endogenous TLR2 and TLR7 | transfect B16-F1 cells
activate hTLR7 | activate hTLR2 | CCCCCCCCCCCCCCCC(=O)OCC(CSC[C@H](N)C(=O)NCCCNCCCCNCCCNC(=O)CNC(=O)c1ccc(Cn2c(O)nc3c(N)nc(NCCCC)nc32)cc1)OC(=O)CCCCCCCCCCCCCCC (stereo partly drawn) [CL553, (20R)-20-amino-1-(4-((6-amino-2-(butylamino)-8-hydroxy-9H-purin-9-yl)methyl)phenyl)-1,4,19-trioxo-22-thia-2,5,9,14,18-pentaazapentacosane-24,25-diyl dipalmitate] | activate endogenous TLR2 and TLR7 | transfect B16-F1 cells
